The values that follow come from patent US8791099B2, “Transition metal complexes of corroles for preventing cardiovascular diseases or disorders” (Technion Research and Development Foundation Ltd., priority 2007, dated 2014).

Test [1] can be described thus: Oxidation of DMSO to formaldehyde by peroxynitrite. Conditions: pH 7.4, T=25°C, yield relative to [PN]0; PN alone 11.5%. The procedure:
The final pH of the solutions was 7.4 and the temperature was maintained at 24° C. After 5 min of stirring, a 0.3 ml NaOH solution (7.8 M) was added to each tube for analyzing the amount of formed formaldehyde. This was immediately followed by supplying the tubes with 0.3 mL of 34.2 mM Purpald® (a color forming reagent for the determination of aldehydes; Aldrich Chemical Co.) in 480 mM HCl; and a second incubation with continuous shaking was performed for 10 min at 24° C. The thus obtained reaction product between formaldehyde and Purpald® was oxidized to a colored compound by the addition of 0.3 mL 470 mM KIO4 in 470 mM NaOH. The absorbance at 550 nm was measured with a spectrophotometer and the amount of formaldehyde was determined by using a standard curve obtained from formaldehyde solutions of known concentrations (a linear curve was obtained by drawing final O.D. at 550 nm versus initial formaldehyde concentrations).
These particular molecules were specifically chosen because they represent targets of hydroxyl radical, nitrogen dioxide, and of oxygen transfer reagents. In addition, their reaction products are easily identified and quantified by established methods.

Test [2] can be described thus: Oxidation of DMSO by copper sulfate/ascorbate. Conditions: CuSO4/ascorbate as initiator; 50 μM corrole, 18 hr. As for the experimental part: Reaction was initiated by adding a mixture of CuSO4 and phenanthroline (final concentration of 8 μM for each), followed by sodium ascorbate (500 μM). […]
Additional experiments were carried out by using CuSO4/ascorbate as the initiator of reactive oxygen species (by the complex Fenton-type oxidation that produces hydroxyl radical via the involvement of superoxide anion radical and hydrogen peroxide), as to bridge between the results of the small molecules and those obtained by oxidation of LDL.

For another test, the system named is LDL. In words: Interaction of LDL with corroles (absorbance before/after dialysis). Type of test: binding, human. Conditions: 10 μM corrole, 100 mg LDL protein/L (0.2 μM), dialyzed against PBS. As for the experimental part: The solutions where extensively dialyzed against PBS, and the electronic spectrum was measured again. The difference in the absorbance can be used to calculate the number of corrole molecules bound to LDL [HDL].
Possible interactions between the corroles and LDL were investigated prior to the examinations of the effect of the corroles on LDL oxidation. This was performed by recording the absorbance spectrum of 10 μM aqueous corrole solutions before and after addition of 100 mg of LDL protein/L (corresponding to a molar concentration of 0.2 μM). […] This large number is quite reasonable since the LDL particle is very large and may not encompass specific binding sites, but rather the amphiphilic nature of the examined corroles renders them ideal for positioning in the phospholipid monolayer of the LDL, with the hydrophilic head groups sticking out toward the aqueous phase, as previously proposed for amphiphilic porphyrins (Camejo et al., 1998; Bonneau et al., 2004). In any case, no corrole is expected to be free in solution at the maximal corrole concentration used in the forthcoming experiments, namely, 5 μM per 100 mg of LDL protein/L (about 25 corrole molecules per LDL particle).

Test [3] concerns mouse peritoneal macrophages (MPM). In words: Cholesterol efflux from MPM of treated E^0 mice. The note with it: drinking water 0.04 mM (8 mg/Kg/day), 14 weeks.
Procedure: Mouse peritoneal macrophages were incubated with [^3H]-labeled cholesterol for 1 h at 37° C. followed by cell wash in ice-cold PBS (3×) and further incubation in the absence or presence of 100 μg of human HDL protein/ml for 3 h at 37° C. Cellular and medium [^3H]-labels were quantitated and HDL-mediated cholesterol efflux was calculated as the ratio of [^3H]-label in the medium/[^3H]-label in the medium+[^3H]-label in cells.
Test [4] shares this test system. In words: Cholesterol synthesis by MPM of treated E^0 mice. Conditions: drinking water 0.04 mM (8 mg/Kg/day), 14 weeks.
Procedure: Cellular cholesterol biosynthesis was assayed after incubation of macrophages (3×10^6 well^−1) overnight with DMEM containing 2% BSA followed by additional 3 h of incubation at 37° C. with [^3H]-acetate (3.3 μCi/ml). Cellular lipids were extracted with hexane:isopropanol (3:2, v:v), and the upper phase was dried under nitrogen. The lipids were then separated by TLC using an eluent of hexane:ether:acetic acid (130:30:1.5, v:v:v). Unesterified cholesterol spots were visualized by iodine vapor (by using standard for identification) and counted with β-counter.
The subject of a further test is J-774 macrophages. In words: Cholesterol efflux from J-774 macrophages by serum of treated E^0 mice. Conditions: drinking water 0.04 mM (8 mg/Kg/day), 14 weeks.

Procedure for J-774 macrophages: J-774 macrophages were incubated with [^3H]-labeled cholesterol for 1.5 h at 37° C. followed by cell wash in ice-cold PBS (3×) and further incubation in the presence of 15 μL mice serum for 3 h at 37° C. Cellular and medium [^3H]-labels were quantitated and HDL-mediated cholesterol efflux was calculated as the ratio of [^3H]-label in the medium/[^3H]-label in the medium+[^3H]-label in cells.

In the case of `O=S(=O)(O)c1cc2[n]3c1C(c1c(F)c(F)c(F)c(F)c1F)=C1C=CC4=[N+]1[Mn-]31[n]3c(cc(S(=O)(=O)O)c3-2)C(c2c(F)c(F)c(F)c(F)c2F)=c2ccc([n]21)=C4c1c(F)c(F)c(F)c(F)c1F` (stereo not drawn) [1-Mn, 5,10,15-tris(pentafluorophenyl)-2,17-bis(sulfonic acid)-corrolato manganese(III)], the “Yield of formaldehyde from DMSO” value in test [1] was 0%. Further, the “Inhibition of the oxidation of DMSO to malonaldehyde” value in test [2] came out at 65%. The “Decrease of absorbance after dialysis” value in the test on LDL worked out at 20%.
As to `O=S(=O)(O)c1cc2[n]3c1C(c1c(F)c(F)c(F)c(F)c1F)=C1C=CC4=[N+]1[Fe-]31[n]3c(cc(S(=O)(=O)O)c3-2)C(c2c(F)c(F)c(F)c(F)c2F)=c2ccc([n]21)=C4c1c(F)c(F)c(F)c(F)c1F` (stereo not drawn) [1-Fe, 5,10,15-tris(pentafluorophenyl)-2,17-bis(sulfonic acid)-corrolato iron(III)], in test [1], the “Yield of formaldehyde from DMSO” value came to 0%. Moreover, the “Inhibition of the oxidation of DMSO to malonaldehyde” value in test [2] is listed as “completely”. Also, in the test on LDL, the “Decrease of absorbance after dialysis” value came to 10%. Further, the “Decrease in cholesterol efflux from the E^0 MPM” value in test [3] is given as 20%. In test [4], the “Reduction of cholesterol synthesis by MPMs” value was 76%. For the same compound, the “Increase in serum-mediated cholesterol efflux from J-774 macrophages” value in the test with J-774 macrophages turned out to be 7%.
